The test addresses Urokinase-type plasminogen activator (Homo sapiens) (UniProt P00749). The experiment in a line: Compound was tested for microPa) Urokinase-type plasminogen activator from human urine.

`CC[C@H](C)[C@@H]1NC(=O)[C@@H]2CCCN2C(=O)[C@@H]2CCCN2C(=O)[C@H]([C@@H](C)CC)NC(=O)[C@H](CO)NC(=O)[C@H](CCCCN)NC(=O)[C@H]([C@@H](C)O)NC(=O)[C@@H]2CSSC[C@H](NC1=O)C(=O)N[C@@H](Cc1ccccc1)C(=O)N1CCC[C@H]1C(=O)N[C@@H](CC(=O)O)C(=O)NCC(=O)N[C@@H](CCCNC(=N)N)C(=O)N2` came in with a Ki of 500 µM.
